Each block holds one compound with its values, some of them ahead of it. Calls of active or inactive are those of the source. The calls are words filed in the database; no cut-off is given here.
How the values were obtained:
[1] = system: Calcium-activated potassium channel subunit alpha-1 (Homo sapiens), Q12791 [UNDEFINED MUTATION]; experiment: (§1) Activation of hyperactive human BKca channel G803D/N806K mutant transfected in human AD-293 cells assessed as maximum relative fluorescence value at 5 uM preincubated for 15 mins followed by Tl+ stimulus buffer addition and measured after 80 sec by Flexstation3 multimode microplate reader analysis relative to control; type: cell-based; conditions: time 980.0 sec
Chain of Calcium-activated potassium channel subunit alpha-1 (Homo sapiens), Q12791 [UNDEFINED MUTATION] (Q12791 whole entry, looked up, stated change not applied): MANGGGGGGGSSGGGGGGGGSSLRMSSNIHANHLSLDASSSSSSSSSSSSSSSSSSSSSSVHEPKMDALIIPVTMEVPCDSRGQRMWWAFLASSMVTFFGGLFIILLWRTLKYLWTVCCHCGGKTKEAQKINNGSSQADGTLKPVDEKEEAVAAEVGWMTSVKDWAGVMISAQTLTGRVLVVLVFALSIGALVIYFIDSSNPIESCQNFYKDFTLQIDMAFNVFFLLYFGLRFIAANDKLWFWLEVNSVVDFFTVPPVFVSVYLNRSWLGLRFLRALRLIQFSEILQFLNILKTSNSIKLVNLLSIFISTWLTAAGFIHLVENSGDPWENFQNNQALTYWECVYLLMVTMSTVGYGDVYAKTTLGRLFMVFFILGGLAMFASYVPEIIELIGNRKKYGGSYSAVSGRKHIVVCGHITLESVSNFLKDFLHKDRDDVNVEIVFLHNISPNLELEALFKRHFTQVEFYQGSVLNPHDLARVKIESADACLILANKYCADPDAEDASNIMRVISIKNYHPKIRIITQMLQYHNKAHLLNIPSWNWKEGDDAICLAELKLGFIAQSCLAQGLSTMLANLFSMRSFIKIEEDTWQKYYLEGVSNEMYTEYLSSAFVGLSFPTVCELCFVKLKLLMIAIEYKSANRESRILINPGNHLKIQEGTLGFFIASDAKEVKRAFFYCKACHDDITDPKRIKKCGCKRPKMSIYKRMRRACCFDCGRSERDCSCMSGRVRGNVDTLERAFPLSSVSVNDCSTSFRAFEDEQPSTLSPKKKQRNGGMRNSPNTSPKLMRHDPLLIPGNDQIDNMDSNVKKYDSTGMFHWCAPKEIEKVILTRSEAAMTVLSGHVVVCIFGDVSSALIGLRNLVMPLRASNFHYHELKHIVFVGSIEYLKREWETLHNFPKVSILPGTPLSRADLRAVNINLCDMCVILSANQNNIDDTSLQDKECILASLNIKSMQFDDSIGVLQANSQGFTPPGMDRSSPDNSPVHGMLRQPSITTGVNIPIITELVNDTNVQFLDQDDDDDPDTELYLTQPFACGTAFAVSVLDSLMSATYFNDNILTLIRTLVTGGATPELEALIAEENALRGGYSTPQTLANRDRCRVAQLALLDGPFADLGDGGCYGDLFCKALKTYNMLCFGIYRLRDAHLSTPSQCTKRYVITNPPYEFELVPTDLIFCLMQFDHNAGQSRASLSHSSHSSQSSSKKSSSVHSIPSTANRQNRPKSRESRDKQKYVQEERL

[2] = system: Calcium-activated potassium channel subunit alpha-1 (Homo sapiens), Q12791 [UNDEFINED MUTATION]; experiment: as §1, with “at 1” for “at 5”; type: cell-based; conditions: time 980.0 sec
[3] = system: Rattus norvegicus; experiment: Reversal of urinary incontinence in male spontaneous hypertensive rat model assessed as decrease in urine frequency at 20 to 40 mg/kg, po measured after 3 hrs; type: functional, organism-based; conditions: dose 20-40 mg/kg
[4] = target: Calcium-activated potassium channel subunit alpha-1 (Homo sapiens, UniProt Q12791, G803D/N806K); experiment: (§2) Activation of hyperactive human BKca channel G803D/N806K mutant transfected in human AD-293 cells incubated for 15 mins by Flexstation3 multimode microplate reader analysis; type: cell-based
Chain of Calcium-activated potassium channel subunit alpha-1 (Q12791 whole entry, looked up, stated change not applied): as above

[5] = system: Calcium-activated potassium channel subunit alpha-1 (Homo sapiens), Q12791 [UNDEFINED MUTATION]; experiment: as §1, with “assessed as fold change in maximum relative” for “assessed as maximum relative”, “relative to 4-chloro-7-(trifluoromethyl)-10H-benzofuro[3,2-b]indole-1-carboxylic acid” for “relative to control”; type: cell-based; conditions: filed as opener, time 980.0 sec
[6] = system: Oocyte; experiment: Activation of rat BKca channel extracted from Xenopus laevis Oocytes assessed as left shift in G-V curve at 5 uM by patch-clamp electrophysiology recordings; type: cell-based; conditions: filed as opener
[7] = system: Calcium-activated potassium channel subunit alpha-1 (Homo sapiens), Q12791 [UNDEFINED MUTATION]; experiment: as §1, with “assessed as fold change in maximum relative” for “assessed as maximum relative”, “reader analysis” for “reader analysis relative to control”; type: cell-based; conditions: filed as opener, time 980.0 sec
[8] = Metabolic stability in rat liver microsomes assessed as parent compound remaining at 1 uM preincubated for 5 mins followed by NADPH addition and measured after 30 mins by LC-MS/MS analysis; type: ADME, Microsome; conditions: read-out: Stability
[9] = Metabolic stability in human liver microsomes assessed as parent compound remaining at 1 uM preincubated for 5 mins followed by NADPH addition and measured after 30 mins by LC-MS/MS analysis; type: ADME, Microsome; conditions: read-out: Stability
[10] = system: Calcium-activated potassium channel subunit alpha-1 (Homo sapiens), Q12791 [UNDEFINED MUTATION]; experiment: as §2; type: cell-based
[11] = Half-life in male Sprague-Dawley rat at 10 mg/kg, iv by LC-MS/MS analysis; type: ADME, organism-based; conditions: in vivo
[12] = AUClast in male Sprague-Dawley rat at 10 mg/kg, iv by LC-MS/MS analysis; type: ADME, organism-based; conditions: in vivo
[13] = Clearance in male Sprague-Dawley rat at 10 mg/kg, iv by LC-MS/MS analysis; type: ADME, organism-based; conditions: in vivo
[14] = Volume of distribution at steady state in male Sprague-Dawley rat at 10 mg/kg, iv by LC-MS/MS analysis; type: ADME, organism-based; conditions: in vivo, read-out: Vdss
[15] = Cmax in male Sprague-Dawley rat at 10 mg/kg, po by LC-MS/MS analysis; type: ADME, organism-based; conditions: in vivo
[16] = Tmax in male Sprague-Dawley rat at 10 mg/kg, po by LC-MS/MS analysis; type: ADME, organism-based; conditions: in vivo
[17] = Half-life in male Sprague-Dawley rat at 10 mg/kg, po by LC-MS/MS analysis; type: ADME, organism-based; conditions: in vivo
[18] = AUClast in male Sprague-Dawley rat at 10 mg/kg, po by LC-MS/MS analysis; type: ADME, organism-based; conditions: in vivo
[19] = Oral bioavailability in male Sprague-Dawley rat at 10 mg/kg by LC-MS/MS analysis; type: ADME, organism-based; conditions: in vivo
[20] = Metabolic stability in rat liver microsomes assessed as parent compound remaining at 1 uM preincubated for 15 mins followed by UDPGA addition and measured after 60 mins by LC-MS/MS analysis; type: ADME, Microsome; conditions: time 75 min, read-out: Stability
[21] = Metabolic stability in human liver microsomes assessed as parent compound remaining at 1 uM preincubated for 15 mins followed by UDPGA addition and measured after 60 mins by LC-MS/MS analysis; type: ADME, Microsome; conditions: time 75 min, read-out: Stability

Activity [1]: 5%
SMILES: Oc1cccc(Oc2c(F)c(F)c(Cl)c(F)c2F)c1

Activity ([1]; filed as opener): 53.4%
SMILES: NCCCCCNc1ccc(Oc2c(F)c(F)c(C(F)(F)F)c(F)c2F)c(O)c1

Activity ([1]; filed as opener): 107%
Activity [2]: 31.8%
SMILES: COc1cc(N)ccc1Oc1c(F)c(F)c(C(F)(F)F)c(F)c1F
Activity [3]: inactive

Activity [1]: 10.2%
SMILES: CN(C)c1ccc(Oc2c(F)c(F)c(C(F)(F)F)c(F)c2F)c(O)c1

Activity ([1]; filed as opener): 100%
EC50 [4]: 1580 nM
fold change (FC) [5]: 2.5
fold change (FC) [7]: 9.7
Activity ([2]; filed as opener): 41.6%
remaining at 0.5 h, 1 µM [8]: 35.9%
remaining at 0.5 h, 1 µM [9]: 83.6%
SMILES: Oc1ccc(Oc2c(F)c(F)c(Cl)c(F)c2F)c(O)c1
Activity [6]: Active

Activity [10]: inactive
SMILES: NC(=O)c1ccc(Oc2c(F)c(F)c(C(F)(F)F)c(F)c2F)cc1

Activity ([1]; filed as opener): 102%
EC50 [4]: 680 nM
Activity ([2]; filed as opener): 81.3%
SMILES: Oc1ccc(Oc2c(F)c(F)c(C(F)(F)F)c(F)c2F)c(O)c1

Activity [1]: 38%
SMILES: Nc1ccc(Oc2c(F)c(F)c(C(F)(F)F)c(F)c2F)c(C(F)(F)F)c1

Activity [10]: inactive
SMILES: NCc1ccc(Oc2c(F)c(F)c(C(F)(F)F)c(F)c2F)c(O)c1

Activity [1]: -2.7%
SMILES: Oc1ccccc1Oc1c(F)c(F)c(Cl)c(F)c1F

half-life [11]: 2.1 h
AUC(0-t) [12]: 6260 ng·h/mL
clearance [13]: 25 mL/min/kg
Vd [14]: 3.5 L/kg
Cmax [15]: 182 ng/mL
Tmax [16]: 1.2 h
half-life [17]: 6.4 h
AUC(0-t) [18]: 668 ng·h/mL
bioavailability [19]: 9.9%
SMILES: COc1cc(N)ccc1Oc1c(F)c(F)c(C(F)(F)F)c(F)c1F.Cl

Activity [1]: 37.9%
SMILES: Nc1ccc(Oc2c(F)c(F)c(C(F)(F)F)c(F)c2F)c(CO)c1

Activity [1]: 1%
SMILES: Fc1c(F)c(C(F)(F)F)c(F)c(F)c1Oc1ccc2[nH]cnc2c1

Activity [10]: inactive
SMILES: COc1ccc(Oc2c(F)c(F)c(Cl)c(F)c2F)c(O)c1

Activity [1]: 8.1%
SMILES: Oc1ccc(Oc2ccc(Cl)c(F)c2)c(O)c1

Activity [1]: 1.2%
SMILES: Oc1ccc(Oc2ccc(Cl)cc2)c(O)c1

Activity ([1]; filed as opener): 91.7%
EC50 [4]: 420 nM
Activity ([2]; filed as opener): 91.7%
remaining at 0.5 h, 1 µM [8]: 4%
remaining at 0.5 h, 1 µM [9]: 76%
remaining at 1 h, 1 µM [20]: 4.7%
remaining at 1 h, 1 µM [21]: 1.6%
SMILES: CNc1ccc(Oc2c(F)c(F)c(C(F)(F)F)c(F)c2F)c(O)c1

Activity [1]: 5.5%
SMILES: Oc1ccc(Oc2cccc(C(F)(F)F)c2)c(O)c1

Activity ([1]; filed as opener): 66.9%
SMILES: Oc1ccc(Oc2c(F)cc(C(F)(F)F)cc2F)c(O)c1

Activity [1]: 18%
SMILES: NCCCCNc1ccc(Oc2c(F)c(F)c(C(F)(F)F)c(F)c2F)c(O)c1

Activity ([1]; filed as opener): 83%
EC50 [4]: 1370 nM
Activity [2]: 17.9%
remaining at 0.5 h, 1 µM [8]: 12.7%
remaining at 0.5 h, 1 µM [9]: 14.8%
SMILES: Nc1ccc(Oc2c(F)c(F)c(C(F)(F)F)c(F)c2F)c(F)c1

Activity [10]: inactive
SMILES: Oc1ccc(O)c(O)c1

Activity [1]: 18.6%
SMILES: Oc1ccc(Oc2ccc(Cl)c(Cl)c2)c(O)c1

Activity [10]: inactive
SMILES: COc1cc(O)ccc1Oc1c(F)c(F)c(Cl)c(F)c1F

Activity [1]: 8.1%
SMILES: N#Cc1cc(N)ccc1Oc1c(F)c(F)c(C(F)(F)F)c(F)c1F

Activity ([1]; filed as opener): 86.8%
Activity [2]: 18.1%
remaining at 0.5 h, 1 µM [8]: 18.6%
remaining at 0.5 h, 1 µM [9]: 7.4%
SMILES: Nc1ccc(Oc2c(F)c(F)c(C(F)(F)F)c(F)c2F)cc1

Activity ([1]; filed as opener): 61.5%
SMILES: Oc1ccc(Oc2cc(Cl)cc(Cl)c2)c(O)c1

Activity ([1]; filed as opener): 99.3%
Activity [2]: 23.7%
SMILES: Oc1ccc(Oc2cc(C(F)(F)F)cc(C(F)(F)F)c2)c(O)c1

Source: ChEMBL document CHEMBL6153133, “Discovery of Diphenyl Ether Derivatives as Novel BKCa Channel Activators: Structure-Activity Relationship, Cryo-EM Complex Structures, and In Vivo Animal Studies” (J Med Chem, 2025)
